Source: PubChem BioAssay AID330 (DTP/NCI, 2004)
Several values for one entry are separate records, joined by “and”; a condition that tells them apart may be missing. Identical values can stand only once. Toxic doses and inconclusive results are not listed.

Tested on: P388 leukemia ip, CD2F1 mice, survival T/C
Assay: NCI In Vivo Anticancer Drug Screen. Data for tumor model P388 Leukemia (intraperitoneal) in CD2F1 (CDF1) mice
Settings: endpoint: median survival time, higher = longer survival
In short: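 Mice carrying the transplanted tumor received test compound or vehicle. Survival was recorded in each group, and the value is the treated-group measurement divided by that of the vehicle-treated control group.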

[1] = dose: 50.0 mg/kg/injection, schedule: Q01DX005 (ip), vehicle: Klucel (hydroxypropylcellulose) (HPC)
[2] = dose: 100.0 mg/kg/injection, schedule: Q01DX005 (ip), vehicle: Klucel (hydroxypropylcellulose) (HPC)
[3] = dose: 200.0 mg/kg/injection, schedule: Q01DX005 (ip), vehicle: Klucel (hydroxypropylcellulose) (HPC)
[4] = dose: 60.0 mg/kg/injection, schedule: Q01DX005 (ip), vehicle: saline with Tween-80
[5] = dose: 120.0 mg/kg/injection, schedule: Q01DX005 (ip), vehicle: saline with Tween-80
[6] = dose: 240.0 mg/kg/injection, schedule: Q01DX005 (ip), vehicle: saline with Tween-80
[7] = dose: 50.0 mg/kg/injection, schedule: Q01DX009 (ip), vehicle: saline with Tween-80
[8] = dose: 100.0 mg/kg/injection, schedule: Q01DX009 (ip), vehicle: saline with Tween-80
[9] = dose: 200.0 mg/kg/injection, schedule: Q01DX009 (ip), vehicle: saline with Tween-80
[10] = dose: 50.0 mg/kg/injection, schedule: Q01DX005 (ip), vehicle: saline with Tween-80
[11] = dose: 100.0 mg/kg/injection, schedule: Q01DX005 (ip), vehicle: saline with Tween-80
[12] = dose: 200.0 mg/kg/injection, schedule: Q01DX005 (ip), vehicle: saline with Tween-80

O=C1N/C(=N/O)CC(NO)N1 (stereo not drawn)
T/C (dose: 100.0 mg/kg/injection, schedule: Q04DX002 (ip), vehicle: Klucel (hydroxypropylcellulose) (HPC)): 97 % of control
T/C (dose: 200.0 mg/kg/injection, schedule: Q04DX002 (ip), vehicle: Klucel (hydroxypropylcellulose) (HPC)): 100 % of control
T/C (dose: 400.0 mg/kg/injection, schedule: Q04DX002 (ip), vehicle: Klucel (hydroxypropylcellulose) (HPC)): 102 % of control

CC1=CC(OC2CCCCO2)CC(C)(C)C1 (stereo not drawn)
T/C (dose: 50.0 mg/kg/injection, schedule: Q01DX009 (ip), vehicle: saline): 100 % of control
T/C (dose: 100.0 mg/kg/injection, schedule: Q01DX009 (ip), vehicle: saline): 99 % of control
T/C (dose: 200.0 mg/kg/injection, schedule: Q01DX009 (ip), vehicle: saline): 101 % of control

CC[As](CC)SC(CC[C@@H](C)C1CC[C@@]2(C)C3=C(CC[C@]12C)[C@@]1(C)CC[C@H](O)C(C)(C)[C@@H]1CC3)C(C)C (stereo partly drawn)
T/C [1]: 87 % of control
T/C [2]: 92 % of control
T/C [3]: 95 % of control

COc1cc(C2CC(C)(N3CCCC3)Oc3cc4c(cc32)OCO4)cc(OC)c1OC (stereo not drawn)
T/C (dose: 60.0 mg/kg/injection, schedule: Q01DX005 (ip), vehicle: Klucel (hydroxypropylcellulose) (HPC)): 106 % of control and 109 % of control

Cc1ccc(NC(=O)c2cc3ccccc3cc2O)c(C)c1.Cc1ccc(NC(=O)c2cc3ccccc3cc2[O-])c(C)c1.[Ni+2]
T/C (dose: 1.56 mg/kg/injection, schedule: Q01DX009 (ip), vehicle: saline with Tween-80): 109 % of control
T/C (dose: 3.12 mg/kg/injection, schedule: Q01DX009 (ip), vehicle: saline with Tween-80): 89 % of control
T/C (dose: 6.12 mg/kg/injection, schedule: Q01DX009 (ip), vehicle: saline with Tween-80): 97 % of control
T/C (dose: 6.25 mg/kg/injection, schedule: Q01DX009 (ip), vehicle: saline): 108 % of control

N=C(N)c1nc2ccccc2s1
T/C (dose: 12.5 mg/kg/injection, schedule: Q01DX009 (ip), vehicle: other): 102 % of control
T/C (dose: 25.0 mg/kg/injection, schedule: Q01DX009 (ip), vehicle: other): 104 % of control
T/C (dose: 50.0 mg/kg/injection, schedule: Q01DX009 (ip), vehicle: other): 93 % of control

O=C(N/N=C/c1ccccc1Cl)c1cccnc1
T/C [4]: 90 % of control
T/C [5]: 93 % of control
T/C [6]: 89 % of control

Cc1[nH]c2c(N)cccc2c1C
T/C [7]: 97 % of control
T/C [8]: 90 % of control
T/C [9]: 88 % of control

Cn1c(=O)cc2n(C)c3ccccc3n2c1=O
T/C [4]: 96 % of control
T/C [5]: 100 % of control
T/C [6]: 97 % of control

OC1CC2OC2C1O (stereo not drawn)
T/C (dose: 60.0 mg/kg/injection, schedule: Q01DX005 (ip), vehicle: saline): 103 % of control
T/C (dose: 120.0 mg/kg/injection, schedule: Q01DX005 (ip), vehicle: saline): 111 % of control
T/C (dose: 240.0 mg/kg/injection, schedule: Q01DX005 (ip), vehicle: saline): 111 % of control

CCCCCCCCCCCCCCCCSc1ccc(N=Cc2ccc(N(CC)CC#N)cc2)cc1
T/C [7]: 97 % of control
T/C [8]: 94 % of control

Cc1nc2ccccc2c(=O)n1/N=C/c1ccccc1Cl
T/C [10]: 100 % of control
T/C [11]: 99 % of control
T/C [12]: 100 % of control

CC(=O)Oc1c2occc2cc2ccc(=O)oc12
T/C [10]: 99 % of control
T/C [11]: 98 % of control
T/C [12]: 100 % of control

COc1ccc(C2C3=C(CC(C)(C)CC3=O)Oc3cc4c(cc32)OCO4)cc1 (stereo not drawn)
T/C [4]: 93 % of control
T/C [5]: 96 % of control

CCCCCCc1cc(C(=O)NN)c2ccccc2n1
T/C [1]: 102 % of control
T/C [2]: 99 % of control
T/C [3]: 96 % of control

O=C(NCCNC(=O)Nc1ccccc1S(=O)(=O)F)Nc1ccccc1S(=O)(=O)F
T/C [7]: 96 % of control
T/C [8]: 97 % of control
T/C [9]: 93 % of control

CC(C)=CCC(/C=N/N=C(N)N)C(C)C (stereo not drawn)
T/C (dose: 6.25 mg/kg/injection, schedule: Q01DX005 (ip), vehicle: suspension in saline): 96 % of control
T/C (dose: 12.5 mg/kg/injection, schedule: Q01DX005 (ip), vehicle: suspension in saline): 97 % of control
T/C (dose: 25.0 mg/kg/injection, schedule: Q01DX005 (ip), vehicle: suspension in saline): 96 % of control
